Source: patent publication US20040102431A1, “Substituted amino-aza-cycloalkanes useful against malaria” (priority 2000, published 2004)
Like-named read-outs stand apart in the source and are kept apart here.

Target: plasmepsin II (Plasmodium falciparum, UniProt P46925)
Assay: biochemical
Details: FRET, pH 5, 37° C., 40 min, substrate 1 μM, read-out: IC50 (nM) on plasmepsin II

plasmepsin II, sequence (P46925 125-453): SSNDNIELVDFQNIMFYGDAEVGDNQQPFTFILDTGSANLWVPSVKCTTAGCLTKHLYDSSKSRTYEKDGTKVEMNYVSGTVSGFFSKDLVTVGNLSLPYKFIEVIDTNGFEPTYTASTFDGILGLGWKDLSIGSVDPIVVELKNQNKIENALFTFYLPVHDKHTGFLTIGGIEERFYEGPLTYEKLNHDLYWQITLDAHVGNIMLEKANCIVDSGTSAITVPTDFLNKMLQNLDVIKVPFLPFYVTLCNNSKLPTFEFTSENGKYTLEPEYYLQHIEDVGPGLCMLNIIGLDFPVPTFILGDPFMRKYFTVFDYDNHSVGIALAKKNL

Compound `CCCCCc1ccc(C(=O)N(Cc2ccc(-c3ccccc3)cc2)C2CCN(Cc3ccc(OC)cc3)CC2)cc1` [Example 56, N-Biphenyl-4-ylmethyl-N-[1-(4-methoxybenzyl)piperidin-4-yl]-4-pentylbenzamide] has an IC50 (Additional Examples table) of 71 nM.
With `CCCCCc1ccc(C(=O)N(Cc2ccc(-c3ccc4c(c3)OCO4)cc2)C2CCN(Cc3ccncc3)CC2)cc1` [Example 50, N-(4-Benzo[1,3]dioxol-5-yl-benzyl)-4-pentyl-N-(1-pyridin-4-ylmethylpiperidin-4-yl)benzamide] the IC50 (Additional Examples table) was 54 nM.
In the case of `CCCCCc1ccc(C(=O)N(Cc2ccc(-c3ccccc3)cc2)C2CCN(Cc3cccc(C(F)(F)F)c3)CC2)cc1` [Example 96, N-Biphenyl-4-ylmethyl-4-pentyl-N-[1-(3-trifluoromethylbenzyl)piperidin-4-yl]benzamide], the IC50 (Additional Examples table) is reported as 319 nM.
Compound `CCCCCc1ccc(C(=O)N(Cc2ccc(C(F)(F)F)c(F)c2)C2CCN(Cc3ccccc3)CC2)cc1` [Example 77, N-(1-Benzylpiperidin-4-yl)-N-(3-fluoro-4-trifluoromethylbenzyl)-4-pentylbenzamide] has an IC50 (Additional Examples table) of 153 nM.
For `CCCCCCCCCCCC(=O)N(Cc1ccc(-c2ccccc2)cc1)C1CCN(Cc2ccccc2)CC1` [Example 16], the IC50 ([…]) was 1300 nM.
Work on `CCCCCc1ccc(C(=O)N(Cc2ccc(-c3ccc4c(c3)OCO4)cc2)C2CCN(Cc3ccccc3)CC2)cc1` [Example 52, N-(4-Benzo[1,3]dioxol-5-yl-benzyl)-N-(1-benzylpiperidin-4-yl)-4-pentylbenzamide] yielded an IC50 (Additional Examples table) of 58 nM.
`CCCCCc1ccc(C(=O)N(Cc2ccc(OCc3ccccc3)c(OC)c2)C2CCN(Cc3ccccc3)CC2)cc1` [Example 22] was tested, and the IC50 ([…]) was 793 nM.
Compound `CCCCCc1ccc(C(=O)N(Cc2ccc(-c3cccc(OC(F)(F)F)c3)cc2)C2CCN(Cc3ccccc3)CC2)cc1` [Example 113, N-(1-Benzylpiperidin-4-yl)-4-pentyl-N-(3′-trifluoromethoxy-biphenyl-4-ylmethyl)benzamide] has an IC50 (Additional Examples table) of 816 nM.
`CCCCCc1ccc(C(=O)N(Cc2ccc(-c3ccc(C#N)cc3)cc2)C2CCN(Cc3ccoc3)CC2)cc1` [Example 32] was tested, and the IC50 ([…]) was 18 nM.
Compound `CCCCOc1ccc(C(=O)N(Cc2ccc(-c3ccccc3)cc2)C2CCN(Cc3ccccc3)CC2)cc1` [Example 15] has an IC50 ([…]) of 1300 nM.
`CCCCC[C@H]1CC[C@H](C(=O)N(Cc2ccc(-c3ccccc3)cc2)C2CCN(Cc3ccccc3)CC2)CC1` [Example 100, trans-4-Pentylcyclohexane carboxylic acid(1-benzylpiperidin-4-yl)-biphenyl-4-ylmethyl amide] showed an IC50 (Additional Examples table) of 374 nM.
Compound `CCCCCc1ccc(CN(Cc2ccc(C(F)(F)F)cc2)C2CCN(Cc3ccccc3)CC2)cc1` [Example 30] has an IC50 ([…]) of 695 nM.
In the case of `CCCCCc1ccc(C(=O)N(Cc2ccc(-c3ccccc3F)cc2)C2CCN(Cc3ccncc3)CC2)cc1` [Example 63, N-(2′-Fluorobiphenyl-4-ylmethyl)-4-pentyl-N-(1-pyridin-4-ylmethyl-piperidin-4-yl)benzamide], the IC50 (Additional Examples table) is reported as 95 nM.
`CCCCCc1ccc(C(=O)N(Cc2ccc(-c3cccnc3)cc2)C2CCN(Cc3cc4ccccc4o3)CC2)cc1` [Example 85, N-(1-Benzofuran-2-ylmethyl-piperidin-4-yl)-4-pentyl-N-(4-pyridin-3-yl-benzyl)benzamide] gave an IC50 (Additional Examples table) of 211 nM.
For `CCCCCc1ccc(C(=O)N(Cc2ccc(-c3cccnc3)cc2)C2CCN(CC3CC3)CC2)cc1` [Example 73, N-(1-Cyclopropylmethylpiperidin-4-yl)-4-pentyl-N-(4-pyridin-3-yl-benzyl)benzamide], the IC50 (Additional Examples table) was 128 nM.
In the case of `CCCCCc1ccc(C(=O)N(Cc2ccc(-c3ccc4c(c3)OCO4)cc2)C2CCN(Cc3ccc(O)cc3)CC2)cc1` [Example 62, N-(4-Benzo[1,3]dioxol-5-yl-benzyl)-N-[1-(4-hydroxybenzyl)piperidin-4-yl]-4-pentylbenzamide], the IC50 (Additional Examples table) is reported as 90 nM.
Compound `CCCCCc1ccc(C(=O)N(Cc2ccc(-c3ccc(OC)c(OC)c3)cc2)C2CCN(Cc3cccnc3)CC2)cc1` [Example 46, N-(3′,4′-Dimethoxybiphenyl-4-ylmethyl)-4-pentyl-N-(1-pyridin-3-ylmethylpiperidin-4-yl)benzamide] has an IC50 (Additional Examples table) of 45 nM.
`CCCCCc1ccc(C(=O)N(Cc2ccc(-c3ccccn3)cc2)C2CCN(Cc3ccccc3)CC2)cc1` [Example 84, N-(1-Benzylpiperidin-4-yl)-4-pentyl-N-(4-pyridin-2-yl-benzyl)benzamide] was tested, and the IC50 (Additional Examples table) was 209 nM.
Compound `CCCCCc1ccc(C(=O)N(Cc2ccc(-c3cccnc3)cc2)C2CCN(Cc3ccoc3)CC2)cc1` [Example 54, N-(1-Furan-3-ylmethylpiperidin-4-yl)-4-pentyl-N-(4-pyridin-3-yl-benzyl)benzamide] has an IC50 (Additional Examples table) of 64 nM.
In the case of `CCCCCc1ccc(C(=O)N(Cc2ccc(O)cc2)C2CCN(Cc3ccccc3)CC2)cc1` [Example 116, N-(1-Benzylpiperidin-4-yl)-N-(4-hydroxybenzyl)-4-pentyl-benzamide], the IC50 (Additional Examples table) is reported as 882 nM.
In the case of `CCCCCc1ccc(C(=O)N(Cc2ccc(-c3ccccc3F)cc2)C2CCN(Cc3ccc(O)cc3)CC2)cc1` [Example 76, N-(2′-Fluorobiphenyl-4-ylmethyl)-N-[1-(4-hydroxybenzyl)piperidin-4-yl]-4-pentylbenzamide], the IC50 (Additional Examples table) is reported as 152 nM.
`CCCCCc1ccc(C(=O)N(Cc2ccc(OCc3ccccc3)cc2)[C@@H]2CCN(Cc3ccccc3)C2)cc1` [Example 114, N-(4-Benzyloxybenzyl)-N-((3R)-1-benzylpyrrolidin-3-yl)-4-pentyl-benzamide] was tested, and the IC50 (Additional Examples table) was 817 nM.
`CCCCCc1ccc(C(=O)N(Cc2ccc(-c3ccc(C#N)cc3)cc2)C2CCN(Cc3ccncc3)CC2)cc1` [Example 42, N-(4′-Cyano-biphenyl-4-ylmethyl)-4-pentyl-N-(1-pyridin-4-ylmethylpiperidin-4-yl)benzamide] was tested, and the IC50 (Additional Examples table) was 28 nM.
Compound `CCCCCc1ccc(C(=O)N(Cc2ccc(-c3cccc(C)c3)cc2)C2CCN(Cc3ccccc3)CC2)cc1` [Example 74, N-(1-Benzylpiperidin-4-yl)-N-(3′-methylbiphenyl-4-ylmethyl)-4-pentylbenzamide] has an IC50 (Additional Examples table) of 140 nM.
Compound `CCCCCc1ccc(C(=O)N(Cc2ccc(-c3cncnc3)cc2)C2CCN(Cc3ccccc3)CC2)cc1` [Example 87, N-(1-Benzylpiperidin-4-yl)-4-pentyl-N-(4-pyrimidin-5-ylbenzyl)benzamide] has an IC50 (Additional Examples table) of 250 nM.
For `CCCCCc1ccc(C(=O)N(Cc2ccc(OCc3ccccc3)cc2)C2CCCN(Cc3ccccc3)C2)cc1` (racemic) [Example 105, (rac.)-N-(4-Benzyloxybenzyl)-N-(1-benzylpiperidin-3-yl)-4-pentyl-benzamide], the IC50 (Additional Examples table) was 458 nM.
In the case of `CCCCCc1ccc(C(=O)N(Cc2ccc(-c3ccccc3)cc2)C2CCN(Cc3ccccc3)CC2)cc1` [Example 14], the IC50 ([…]) is reported as 84 nM.
`CCCCCc1ccc(CN(Cc2ccc(-c3ccccc3)cc2)C2CCN(Cc3ccccc3)CC2)cc1` [Example 31] was tested, and the IC50 ([…]) was 210 nM.
In the case of `CCCCCc1ccc(C(=O)N(Cc2ccc(OCC)cc2)C2CCN(Cc3ccccc3)CC2)cc1` [Example 94, N-(1-Benzylpiperidin-4-yl)-N-(4-ethoxybenzyl)-4-pentylbenzamide], the IC50 (Additional Examples table) is reported as 284 nM.
`CCCCCc1ccc(C(=O)N(Cc2ccc(Oc3ccccc3)cc2)C2CCN(Cc3ccccc3)CC2)cc1` [Example 7] showed an IC50 ([…]) of 462 nM.
`CCCCCc1ccc(C(=O)N(Cc2ccc(-c3ccccc3)cc2)C2CCN(Cc3ccoc3)CC2)cc1` [Example 71, N-Biphenyl-4-ylmethyl-N-(1-furan-3-ylmethyl-piperidin-4-yl)-4-pentylbenzamide] showed an IC50 (Additional Examples table) of 127 nM.
With `CCCCCc1ccc(CN(Cc2ccc(-c3ccc4c(c3)OCO4)cc2)C2CCN(Cc3ccccc3)CC2)cc1` [Example 91, (4-Benzo[1,3]dioxol-5-yl-benzyl)-(1-benzylpiperidin-4-yl)-(4-pentyl-benzyl)amine] the IC50 (Additional Examples table) was 275 nM.
Work on `CCCCCc1ccc(C(=O)N(Cc2ccc(-c3ccccn3)cc2)C2CCN(Cc3ccncc3)CC2)cc1` [Example 79, 4-Pentyl-N-(4-pyridin-2-yl-benzyl)-N-(1-pyridin-4-ylmethylpiperidin-4-yl)benzamide] yielded an IC50 (Additional Examples table) of 176 nM.
`CCCCCc1ccc(C(=O)N(Cc2ccc(-c3ccccc3)cc2)C2CCN(Cc3ccc(O)cc3)CC2)cc1` [Example 81, N-Biphenyl-4-ylmethyl-N-[1-(4-hydroxybenzyl)piperidin-4-yl]-4-pentylbenzamide] was tested, and the IC50 (Additional Examples table) was 192 nM.
`CCCCCc1ccc(C(=O)N(Cc2ccc(-c3cccnc3)cc2)C2CCN(Cc3ccc(CO)o3)CC2)cc1` [Example 72, N-[1-(5-Hydroxymethyl-furan-2-ylmethyl)piperidin-4-yl]-4-pentyl-N-(4-pyridin-3-ylbenzyl)benzamide] gave an IC50 (Additional Examples table) of 128 nM.
Work on `CCCCCc1ccc(C(=O)N(Cc2ccc(-c3ccccc3F)cc2)C2CCN(Cc3ccccc3)CC2)cc1` [Example 53, N-(1-Benzylpiperidin-4-yl)-N-(2′-fluorobiphenyl-4-ylmethyl)-4-pentylbenzamide] yielded an IC50 (Additional Examples table) of 61 nM.
For `CCCCCc1ccc(C(=O)N(Cc2ccc(OCc3ccc(F)cc3)cc2)C2CCN(Cc3ccccc3)CC2)cc1` [Example 58, N-(1-Benzyl-piperidin-4-yl)-N-[4-(4-fluoro-benzyloxy)-benzyl]-4-pentyl-benzamide], the IC50 (Additional Examples table) was 79 nM.
For `C=CCOc1ccc(CN(C(=O)c2ccc(CCCCC)cc2)C2CCN(Cc3ccccc3)CC2)cc1` [Example 90, N-(4-Allyloxybenzyl)-N-(1-benzylpiperidin-4-yl)-4-pentylbenzamide], the IC50 (Additional Examples table) was 270 nM.
For `CCCCCc1ccc(C(=O)N(Cc2ccc(-c3ccc(OCCO)cc3)cc2)C2CCN(Cc3ccncc3)CC2)cc1` [Example 44, N-[4′-(2-Hydroxyethoxy)-biphenyl-4-ylmethyl]-4-pentyl-N-(1-pyridin-4-ylmethylpiperidin-4-yl)benzamide], the IC50 (Additional Examples table) was 39 nM.
For `CCCCCc1ccc(C(=O)N(Cc2ccc(-c3ccc(C#N)cc3)cc2)C2CCN(CC3=CCCCC3)CC2)cc1` [Example 40, N-(4′-Cyanobiphenyl-4-ylmethyl)-N-(1-cyclohex-1-enylmethyl-piperidin-4-yl)-4-pentylbenzamide], the IC50 (Additional Examples table) was 25 nM.
`CCCCCCc1ccc(C(=O)N(Cc2ccc(-c3ccccc3)cc2)C2CCN(Cc3ccccc3)CC2)cc1` [Example 97, N-(1-Benzylpiperidin-4-yl)-N-biphenyl-4-ylmethyl-4-hexyl-benzamide] gave an IC50 (Additional Examples table) of 322 nM.
